Key:
HT29 cells = test: In vitro cytotoxicity (MTT cell viability); format: cell-based, human; details: 24 hours
Protocol: HT29 cells were seeded at low density of 1×10^4 cells per well in 96 well-plates in medium containing high glucose DMEM, 10% FBS, 1% sodium pyruvate, 1% Penicillin, Streptomycin, and Neomycin.
(§1) Drug effect on cellular viability was evaluated using an assay based on the cleavage of the yellow dye 3-(4, 5-dimethyl-2-thiazolyl)-2, 5-diphenyl-2H-tetrazolium bromide (MTT) to purple formazan crystals by dehydrogenase activity in mitochondria.
(§2) After drug treatment for 24 hours, medium was removed and cell layers were rinsed with medium following MTT diluted (0.5 mg/ml) in medium for 4 hours at 37° C. incubator (5% CO2).
(§3) The cells were then added with 100 μl/well DMSO and the optical density of the cellular homogenate was measured at 570 nm using ELISA reader.
(§4) The fraction of live cells was calculated by dividing the mean optical density obtained from treated cells by the mean optical density from untreated control cells.
(§5) After drug treatment for 24 hr, medium was removed and cell layers were rinsed with medium following MTT diluted (0.5 mg/ml) in medium for 4 hours at 37° C. incubator (5% CO2).
Drug effect on cellular viability was evaluated using an assay based on the cleavage of the yellow dye 3-(4,5-dimethyl-2-thiazolyl)-2,5-diphenyl-2H-tetrazolium bromide (MTT) to purple formazan crystals by dehydrogenase activity in mitochondria.

HCT15 cells = test: In vitro cytotoxicity (MTT cell viability); format: cell-based, human; details: 24 hours
Protocol: HCT15 cells were seeded at low density of 1×10^4 cells per well in 96 well-plates in medium containing DMEM/F12, 10% FBS, 1% sodium pyruvate, 1% Penicillin, Streptomycin, and Neomycin.
as §1, §2, §3, §4, §5

[1] = Body weight in xenograft nude mice model; format: in vivo, BALB/c athymic (nu+/nu+) mice; details: HT29 xenograft mice; 1.5 mg/kg Nimesulide or equivalent, tail vein, within 24 days
Protocol: 3. Tumor sizes and body weight were measured every 3 or 5 days for the duration of the experiment.
6. Mice were administered via tail vein injections at doses of Nimesulide (1.5 mg/kg), HA-Nimesulide (equivalent to 1.5 mg/kg of Nimesulide) or PBS respectively with an interval of 48 or 72 hours.
7. The tumor size and change in body weight of each mouse were recorded.

[2] = Adhesion of fluorescent HA (HA-f) in colon tissue (IVIS image system); set-up: species or system SD-rat (Sprague-Dawley Rat); details: 0.5% HA-f, 2 hours
Protocol: 1. 0.25 g high molecule weight sodium hyaluronate powder (HHA; Mw: 2 MDa; Freda) and 0.25 g low molecule weight sodium hyaluronate powder (LHA; Mw: 0.35 MDa; Freda) were added into 50 ml PBS buffer (Phosphate buffered saline) respectively to form 0.5% solution, and then stirred for 6 hours until the powder was totally dissolved. 0.25 g medium molecule weight sodium hyaluronate powder (MHA; Mw: 1 MDa; Freda) was added into 50 ml PBS buffer, and then stirred for 6 hours until the powder was totally dissolved and ready for use in the following steps.
2. Fluorescent HA (HA-f) was prepared by (1) 0.39 g MES free acid (2-(N-morpholino) ethanesulfonic acid, Calbiochem) and was dissolved in 100 ml dd water. (2) Solution A: 65 mg fluroresceinamine powder, (isomer I, Fluka) was dissolved in 9 ml 95% EtOH solution and then stirred for 10 minutes under a condition that light was prohibited. […] (8) The product after reaction was poured into a dialysis tubing (MW: 12000˜14000) in 5 L dd water as a dialysis solution and then stirred for 5 days at 4° C. under a condition that light was prohibited with dialysis solution being changed every 12 hours until the dialysis solution had no fluorescence. […]
7. All values are calculated as means of n observations. The histological index was analyzed by Student's t-test.

[3] = Lenalidomide series, 3.125-400 μM
[4] = Nimesulide series, 3.125-200 μM

Nc1cccc2c1CN(C1CCC(=O)NC1=O)C2=O (stereo not shown) [Lenalidomide]
cytotoxicity effect (cell viability, MTT) (HT29 cells; [3]): almost the same in both cell lines | cytotoxicity effect (cell viability, MTT) (HCT15 cells; [3]): almost the same in both cell lines

CS(=O)(=O)Nc1ccc([N+](=O)[O-])cc1Oc1ccccc1 [NiNO2, Nimesulide]
cytotoxicity effect (cell viability, MTT) (HT29 cells; [4]): generally better than modified production | average body weight [1]: almost the same | cytotoxicity effect (cell viability, MTT) (HCT15 cells; [4]): generally better than modified production

sodium hyaluronate [1 MDa HA]
fluorescent index of adhesion ([2]; normal or injured colon tissues): higher than 2 MDa HA

sodium hyaluronate [350 KDa HA]
fluorescent index of adhesion ([2]; injured colon tissues, normal colon tissue defined as 1): obviously higher than HAs of the other two average molecular weights

Reference: US11229665B2, “Compound of glycosaminoglycan and its fabrication method as well as application” (Holy Stone Healthcare Co., Ltd., priority 2013, dated 2022)
